Active and inactive are the calls of the source. No cut-off for these calls is given here.
Legend:
[1] = target: T1, Vascular endothelial growth factor receptor 2 (Homo sapiens, UniProt P35968); test: Inhibitory activity against VEGFR2 kinase at 20 uM
[2] = target: T2, Platelet-derived growth factor receptor beta (Homo sapiens, UniProt P09619); test: Inhibitory activity against PDGFRbeta kinase at 20 uM
[3] = target: T3, Fibroblast growth factor receptor 1 (Homo sapiens, UniProt P11362); test: Inhibitory activity against FGFR1 kinase at 20 uM
Target sequence in this assay (P11362 22-822 limits assumed): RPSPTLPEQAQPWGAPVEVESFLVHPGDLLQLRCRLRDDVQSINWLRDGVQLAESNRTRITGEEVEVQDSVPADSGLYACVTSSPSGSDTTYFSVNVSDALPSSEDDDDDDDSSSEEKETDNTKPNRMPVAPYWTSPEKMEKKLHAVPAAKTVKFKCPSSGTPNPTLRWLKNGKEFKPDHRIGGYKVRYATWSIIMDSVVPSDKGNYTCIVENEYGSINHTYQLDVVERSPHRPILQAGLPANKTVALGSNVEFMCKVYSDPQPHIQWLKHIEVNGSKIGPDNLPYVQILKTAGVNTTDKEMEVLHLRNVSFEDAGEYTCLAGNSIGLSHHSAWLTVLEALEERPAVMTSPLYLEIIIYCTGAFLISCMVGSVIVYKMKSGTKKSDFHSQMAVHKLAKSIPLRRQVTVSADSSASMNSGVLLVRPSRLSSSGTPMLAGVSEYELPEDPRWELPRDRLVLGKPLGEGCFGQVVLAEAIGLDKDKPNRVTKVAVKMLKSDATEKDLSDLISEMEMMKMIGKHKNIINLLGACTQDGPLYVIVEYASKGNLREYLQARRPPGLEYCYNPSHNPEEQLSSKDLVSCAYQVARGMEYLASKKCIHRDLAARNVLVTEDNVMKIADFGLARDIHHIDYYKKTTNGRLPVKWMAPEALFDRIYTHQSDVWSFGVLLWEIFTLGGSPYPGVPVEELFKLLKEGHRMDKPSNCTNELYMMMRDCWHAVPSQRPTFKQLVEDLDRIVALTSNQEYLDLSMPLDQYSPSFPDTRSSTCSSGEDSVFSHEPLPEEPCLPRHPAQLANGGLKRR

[4] = target: T4, Epidermal growth factor receptor (Homo sapiens, UniProt P00533); conditions: 20 uM
Description: Inhibitory activity against EGFR kinase at 20 uM

[5] = target: T3, Fibroblast growth factor receptor 1; test: Inhibitory activity against FGFR1 kinase
Target sequence in this assay (P11362 whole entry): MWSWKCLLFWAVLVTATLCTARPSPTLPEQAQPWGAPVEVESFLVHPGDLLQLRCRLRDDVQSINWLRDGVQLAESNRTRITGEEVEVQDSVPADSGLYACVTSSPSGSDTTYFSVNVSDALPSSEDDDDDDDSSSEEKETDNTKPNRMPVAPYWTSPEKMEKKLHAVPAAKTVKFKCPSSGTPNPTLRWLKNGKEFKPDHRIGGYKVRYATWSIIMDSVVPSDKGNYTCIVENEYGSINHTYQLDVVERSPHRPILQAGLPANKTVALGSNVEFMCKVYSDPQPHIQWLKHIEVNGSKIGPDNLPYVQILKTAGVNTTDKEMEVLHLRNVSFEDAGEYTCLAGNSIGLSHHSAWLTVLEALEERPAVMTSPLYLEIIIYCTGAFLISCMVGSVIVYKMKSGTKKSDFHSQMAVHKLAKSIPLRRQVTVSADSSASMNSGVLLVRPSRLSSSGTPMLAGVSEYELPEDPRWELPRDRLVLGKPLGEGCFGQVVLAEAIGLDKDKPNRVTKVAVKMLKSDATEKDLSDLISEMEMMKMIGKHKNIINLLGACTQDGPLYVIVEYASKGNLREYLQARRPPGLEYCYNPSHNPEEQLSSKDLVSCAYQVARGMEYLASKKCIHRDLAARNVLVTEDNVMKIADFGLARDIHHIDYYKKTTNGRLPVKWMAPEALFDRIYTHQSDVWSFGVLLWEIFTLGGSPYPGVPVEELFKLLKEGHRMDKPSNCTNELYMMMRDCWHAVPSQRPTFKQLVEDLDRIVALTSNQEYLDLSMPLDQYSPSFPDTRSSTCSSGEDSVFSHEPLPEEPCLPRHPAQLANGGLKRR

[6] = target: T2, Platelet-derived growth factor receptor beta; test: Inhibitory activity against PDGFRbeta kinase
[7] = target: T4, Epidermal growth factor receptor; test: Inhibitory activity against EGFR kinase
HUVEC [8] = test: Inhibition of HUVEC tube formation at 10 uM; assay type: functional, cell-based; conditions: Homo sapiens
A-431 = test: Cytotoxicity against epidermoid carcinoma A431 cell line; assay type: functional, cell-based; conditions: Homo sapiens
[9] = target: T1, Vascular endothelial growth factor receptor 2; test: Inhibitory activity against VEGFR2 kinase
HUVEC [10] = test: Inhibition of HUVEC tube formation at 2 uM; assay type: functional, cell-based; conditions: Homo sapiens
[11] = target: T4, Epidermal growth factor receptor; test: Inhibition of MEK2 phosphorylation in EGF-treated A431 cells at 1 uM; assay type: functional, cell-based; conditions: A-431
[12] = target: T4, Epidermal growth factor receptor; test: Inhibition of ERK1 phosphorylation in EGF-treated A431 cells at 1 uM; assay type: functional, cell-based; conditions: A-431
[13] = target: T4, Epidermal growth factor receptor; test: Inhibition of ERK2 phosphorylation in EGF-treated A431 cells at 1 uM; assay type: functional, cell-based; conditions: A-431
[14] = target: T4, Epidermal growth factor receptor; test: Intracellular inhibition of autophosphorylation of EGFR in A431 cells; assay type: functional, cell-based; conditions: A-431
[15] = target: T4, Epidermal growth factor receptor; test: Inhibition of MEK1 phosphorylation in EGF-treated A431 cells at 1 uM; assay type: functional, cell-based; conditions: A-431

T4 sequence (P00533 whole entry): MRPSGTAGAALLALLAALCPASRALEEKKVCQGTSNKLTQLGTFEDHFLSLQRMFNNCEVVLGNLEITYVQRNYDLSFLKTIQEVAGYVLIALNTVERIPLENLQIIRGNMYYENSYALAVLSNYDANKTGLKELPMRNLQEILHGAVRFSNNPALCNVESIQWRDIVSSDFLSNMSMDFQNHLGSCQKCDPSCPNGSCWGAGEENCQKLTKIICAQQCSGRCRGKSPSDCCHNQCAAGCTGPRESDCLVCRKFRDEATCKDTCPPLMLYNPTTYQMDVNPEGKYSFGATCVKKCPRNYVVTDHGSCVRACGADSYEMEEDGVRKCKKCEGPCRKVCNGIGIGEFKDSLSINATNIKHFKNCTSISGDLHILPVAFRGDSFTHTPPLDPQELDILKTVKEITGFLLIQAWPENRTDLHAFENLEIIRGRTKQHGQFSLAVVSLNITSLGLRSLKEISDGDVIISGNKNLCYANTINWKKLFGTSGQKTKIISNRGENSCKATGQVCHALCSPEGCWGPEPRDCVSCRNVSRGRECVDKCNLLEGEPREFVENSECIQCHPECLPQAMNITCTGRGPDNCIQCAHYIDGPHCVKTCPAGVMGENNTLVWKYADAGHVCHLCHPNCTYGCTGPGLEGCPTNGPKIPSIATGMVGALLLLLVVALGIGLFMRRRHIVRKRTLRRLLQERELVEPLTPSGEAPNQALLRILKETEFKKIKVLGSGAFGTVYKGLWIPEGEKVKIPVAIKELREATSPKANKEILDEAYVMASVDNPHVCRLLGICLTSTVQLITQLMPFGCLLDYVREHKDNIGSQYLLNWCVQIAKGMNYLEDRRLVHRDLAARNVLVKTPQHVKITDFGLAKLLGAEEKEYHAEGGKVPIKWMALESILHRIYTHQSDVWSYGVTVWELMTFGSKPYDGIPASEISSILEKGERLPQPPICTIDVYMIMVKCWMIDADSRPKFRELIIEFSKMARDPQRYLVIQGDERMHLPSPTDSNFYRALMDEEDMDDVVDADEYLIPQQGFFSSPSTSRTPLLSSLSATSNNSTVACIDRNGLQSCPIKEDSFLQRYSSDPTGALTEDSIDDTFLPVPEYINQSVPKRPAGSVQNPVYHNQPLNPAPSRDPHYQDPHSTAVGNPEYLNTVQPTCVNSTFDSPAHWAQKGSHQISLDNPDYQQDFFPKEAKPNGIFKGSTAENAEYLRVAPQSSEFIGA
T1 sequence (P35968 whole entry): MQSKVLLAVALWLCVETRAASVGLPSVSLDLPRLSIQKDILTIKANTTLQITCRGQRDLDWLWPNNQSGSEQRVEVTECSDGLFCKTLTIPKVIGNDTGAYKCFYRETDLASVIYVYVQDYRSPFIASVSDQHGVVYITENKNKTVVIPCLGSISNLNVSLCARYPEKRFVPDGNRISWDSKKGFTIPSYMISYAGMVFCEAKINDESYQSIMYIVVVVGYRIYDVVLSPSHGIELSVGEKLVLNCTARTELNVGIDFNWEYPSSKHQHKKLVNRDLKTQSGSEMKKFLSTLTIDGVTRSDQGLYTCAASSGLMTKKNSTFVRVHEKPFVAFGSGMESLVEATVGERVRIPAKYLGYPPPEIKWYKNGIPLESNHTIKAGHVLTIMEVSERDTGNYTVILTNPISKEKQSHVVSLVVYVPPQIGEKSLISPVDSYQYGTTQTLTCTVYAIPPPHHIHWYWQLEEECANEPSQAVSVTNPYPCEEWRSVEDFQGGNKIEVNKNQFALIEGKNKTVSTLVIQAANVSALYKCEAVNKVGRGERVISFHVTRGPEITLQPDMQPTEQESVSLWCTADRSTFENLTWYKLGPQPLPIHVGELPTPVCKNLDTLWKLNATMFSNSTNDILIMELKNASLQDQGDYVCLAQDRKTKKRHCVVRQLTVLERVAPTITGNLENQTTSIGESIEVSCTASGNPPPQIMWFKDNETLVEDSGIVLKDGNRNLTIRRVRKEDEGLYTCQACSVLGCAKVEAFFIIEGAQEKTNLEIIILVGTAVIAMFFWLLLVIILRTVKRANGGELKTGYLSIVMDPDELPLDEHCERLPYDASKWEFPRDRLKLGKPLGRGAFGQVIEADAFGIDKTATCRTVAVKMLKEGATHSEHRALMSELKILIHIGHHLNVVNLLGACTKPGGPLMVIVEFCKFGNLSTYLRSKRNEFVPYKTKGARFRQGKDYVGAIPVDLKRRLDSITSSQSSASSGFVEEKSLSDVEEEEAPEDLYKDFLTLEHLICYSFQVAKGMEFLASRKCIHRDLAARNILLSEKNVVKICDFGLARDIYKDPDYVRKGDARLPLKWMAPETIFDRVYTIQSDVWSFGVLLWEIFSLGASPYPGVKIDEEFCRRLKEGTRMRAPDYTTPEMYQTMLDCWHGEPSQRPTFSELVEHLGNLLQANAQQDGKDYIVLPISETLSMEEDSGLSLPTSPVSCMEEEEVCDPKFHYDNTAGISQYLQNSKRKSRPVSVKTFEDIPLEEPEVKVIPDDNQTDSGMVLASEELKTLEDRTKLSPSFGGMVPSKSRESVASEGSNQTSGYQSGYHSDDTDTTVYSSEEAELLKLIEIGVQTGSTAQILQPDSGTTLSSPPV

Which inhibition [1] does the source give for `COC(=O)c1c(O)c2ccccc2c2oc3c(c12)C(=O)c1ccccc1C3=O` here?
Its inhibition is 16%.

And the inhibition [2]?
The inhibition was 2.8%.

And the inhibition [3]?
Its inhibition is 12.6%.

What about the inhibition [4] of the same molecule?
The inhibition was 21.4%.

Which results are given for `COC(=O)c1c(OC(C)=O)c2ccccc2c2oc3c(c12)C(=O)c1ccccc1C3=O`?
inhibition [2]: -0.3%; inhibition [3]: -8.1%; inhibition [4]: 21.6%

Which results are given for `COC(=O)c1c(OC)c2ccccc2c2oc3c(c12)C(=O)c1ccccc1C3=O`?
inhibition [1]: -0.8%; inhibition [2]: 12.7%; inhibition [3]: 10.5%; IC50 [5]: > 50 µM; IC50 [6]: > 50 µM; IC50 [7]: 12.6 µM; inhibition [4]: 16.7%

Which results are given for `COC(=O)c1c(OCCCN2CCN(c3ccccc3Cl)CC2)c2ccccc2c2oc3c(c12)C(=O)c1ccccc1C3=O`?
inhibition [1]: 62.1%; inhibition [2]: 68.9%; inhibition [3]: 55.5%; inhibition [4]: 68.3%

How did the inhibition [1] turn out when `COC(=O)c1c(OCc2ccc(C(=O)OC(C)(C)C)cc2)c2ccccc2c2oc3c(c12)C(=O)c1ccccc1C3=O` was run?
The inhibition was 52.2%.

And the inhibition [2]?
The inhibition was 62.2%.

What about the inhibition [3] of the same molecule?
Its inhibition is 50.8%.

And the inhibition [4]?
The inhibition was 57.1%.

Which results are given for `COC(=O)c1c(OCc2ccc(OC)cc2)c2ccccc2c2oc3c(c12)C(=O)c1ccccc1C3=O`?
inhibition [1]: 48.3%; inhibition [2]: 69.4%; inhibition [3]: 46%; inhibition [4]: 72.6%

With `COC(=O)c1c(OCc2ccc(C(F)(F)F)cc2)c2ccccc2c2oc3c(c12)C(=O)c1ccccc1C3=O` as the molecule, how does the inhibition [1] read?
Its inhibition is 40.9%.

And the inhibition [2]?
The inhibition was 51.5%.

What about the inhibition [3] of the same molecule?
The inhibition was 44.5%.

And the inhibition [4]?
Its inhibition is 33.6%.

With `CCCOc1c(C(=O)OC)c2c3c(oc2c2ccccc12)C(=O)c1ccccc1C3=O` as the molecule, how does the inhibition [1] read?
The inhibition was -2.1%.

And the inhibition [2]?
Its inhibition is 5.7%.

And the inhibition [3]?
The inhibition was 2.4%.

And the IC50 [5]?
The IC50 was over 50 µM.

And the IC50 [6]?
Its IC50 is over 50 µM.

What about the IC50 [7] of the same molecule?
Its IC50 is over 50 µM.

And the inhibition [4]?
The inhibition was 38.7%.

Which inhibition [1] does the source give for `COC(=O)c1c(OCc2ccncc2)c2ccccc2c2oc3c(c12)C(=O)c1ccccc1C3=O` here?
Its inhibition is 3.1%.

What about the inhibition [2] of the same molecule?
The inhibition was 2.9%.

And the inhibition [3]?
The inhibition was 2.6%.

And the inhibition [4]?
The inhibition was 19.4%.

For `COC(=O)c1c(OCCN(C)C)c2ccccc2c2oc3c(c12)C(=O)c1ccccc1C3=O`, which inhibition [1] is on record?
Its inhibition is 57.1%.

What about the Activity (HUVEC [8]) of the same molecule?
The Activity was “Active”.

And the IC50 (A-431)?
Its IC50 is 1.1 µM.

What about the inhibition [2] of the same molecule?
The inhibition was 56.5%.

What about the IC50 [9] of the same molecule?
The IC50 was 13 µM.

And the inhibition [3]?
Its inhibition is 51%.

What about the IC50 [5] of the same molecule?
The IC50 was 23.6 µM.

And the Activity (HUVEC [10])?
Its Activity is “Active”.

What about the IC50 [6] of the same molecule?
The IC50 was 7.6 µM.

And the IC50 [7]?
The IC50 was 31 µM.

And the inhibition [4]?
The inhibition was 71%.

How did the inhibition [1] turn out when `COC(=O)c1c(OCCN2CCCCC2)c2ccccc2c2oc3c(c12)C(=O)c1ccccc1C3=O` was run?
The inhibition was 81.7%.

What about the Activity (HUVEC [8]) of the same molecule?
Its Activity is “Active”.

And the IC50 (A-431)?
Its IC50 is 4.3 µM.

What about the inhibition [2] of the same molecule?
Its inhibition is 89.8%.

And the Activity [11]?
The Activity was “Active”.

What about the Activity [12] of the same molecule?
Its Activity is “Active”.

What about the IC50 [9] of the same molecule?
The IC50 was 4.6 µM.

And the inhibition [3]?
The inhibition was 79.1%.

What about the Activity [13] of the same molecule?
Its Activity is “Active”.

What about the Activity [14] of the same molecule?
Its Activity is “Active”.

And the Activity [15]?
The Activity was “Active”.

And the IC50 [5]?
Its IC50 is 7.1 µM.

What about the IC50 [6] of the same molecule?
The IC50 was 5.5 µM.

What about the IC50 [7] of the same molecule?
Its IC50 is 2.8 µM.

And the inhibition [4]?
Its inhibition is 84.3%.

For `N#CC(C#N)=C(N)/C(C#N)=C/c1cc(O)c(O)c(O)c1` [TYRPHOSTIN 51], which inhibition [1] is on record?
The inhibition was 88%.

And the inhibition [2]?
The inhibition was 82%.

What about the IC50 [9] of the same molecule?
Its IC50 is 4.3 µM.

And the inhibition [3]?
Its inhibition is 93%.

What about the IC50 [5] of the same molecule?
Its IC50 is 4.9 µM.

And the IC50 [6]?
The IC50 was 2.8 µM.

And the IC50 [7]?
The IC50 was 4.1 µM.

What about the inhibition [4] of the same molecule?
Its inhibition is 90%.

With `COC(=O)c1c(OCCN2CCN(Cc3ccc(C(F)(F)F)cc3)CC2)c2ccccc2c2oc3c(c12)C(=O)c1ccccc1C3=O` as the molecule, how does the inhibition [1] read?
Its inhibition is 43.3%.

What about the inhibition [2] of the same molecule?
Its inhibition is 52%.

What about the inhibition [3] of the same molecule?
Its inhibition is 48.2%.

And the inhibition [4]?
Its inhibition is 47.5%.

Which inhibition [1] does the source give for `COC(=O)c1c(OCCN2CCCC2)c2ccccc2c2oc3c(c12)C(=O)c1ccccc1C3=O` here?
Its inhibition is 86.5%.

What about the IC50 (A-431) of the same molecule?
Its IC50 is 1.1 µM.

And the inhibition [2]?
The inhibition was 95.5%.

What about the IC50 [9] of the same molecule?
Its IC50 is 5.5 µM.

And the inhibition [3]?
The inhibition was 65.2%.

What about the IC50 [5] of the same molecule?
The IC50 was 23.8 µM.

What about the IC50 [6] of the same molecule?
The IC50 was 8.7 µM.

What about the IC50 [7] of the same molecule?
The IC50 was 9 µM.

What about the inhibition [4] of the same molecule?
The inhibition was 77.1%.

Which inhibition [1] does the source give for `CCN(CC)CCOc1c(C(=O)OC)c2c3c(oc2c2ccccc12)C(=O)c1ccccc1C3=O` here?
The inhibition was 60.4%.

What about the Activity (HUVEC [8]) of the same molecule?
Its Activity is “Active”.

What about the IC50 (A-431) of the same molecule?
The IC50 was 1.7 µM.

And the inhibition [2]?
The inhibition was 64.1%.

And the IC50 [9]?
The IC50 was 12.6 µM.

What about the inhibition [3] of the same molecule?
Its inhibition is 61.1%.

And the Activity [14]?
Its Activity is “Active”.

And the IC50 [5]?
Its IC50 is 8.8 µM.

What about the IC50 [6] of the same molecule?
Its IC50 is 15.9 µM.

What about the IC50 [7] of the same molecule?
Its IC50 is 5.1 µM.

What about the inhibition [4] of the same molecule?
Its inhibition is 82.1%.

With `COC(=O)c1c(OCCN2CCOCC2)c2ccccc2c2oc3c(c12)C(=O)c1ccccc1C3=O` as the molecule, how does the inhibition [1] read?
The inhibition was 40.7%.

And the inhibition [2]?
Its inhibition is 46.2%.

And the inhibition [3]?
The inhibition was 41.4%.

What about the inhibition [4] of the same molecule?
The inhibition was 67.9%.

Which inhibition [1] does the source give for `COC(=O)c1c(OCCCN(C)C)c2ccccc2c2oc3c(c12)C(=O)c1ccccc1C3=O` here?
The inhibition was 57.5%.

And the inhibition [2]?
The inhibition was 57.2%.

What about the IC50 [9] of the same molecule?
Its IC50 is 15.5 µM.

What about the inhibition [3] of the same molecule?
Its inhibition is 51.2%.

And the IC50 [5]?
The IC50 was 38.4 µM.

What about the IC50 [6] of the same molecule?
Its IC50 is 10.2 µM.

And the IC50 [7]?
Its IC50 is 13.6 µM.

What about the inhibition [4] of the same molecule?
The inhibition was 72.4%.

— ChEMBL document CHEMBL1149378, “Naphthofuroquinone derivatives: inhibition of receptor tyrosine kinases” (Bioorg Med Chem Lett, 2006)
